Data published in PubChem BioAssay AID248 (DTP/NCI, 2004).
Where “and” joins values, the source holds several entries; their conditions need not be identical. Identical values can stand only once. Toxic doses and inconclusive results are not listed. Cut-off read from the data, not from the text of the source: active = T/C of 150% or more; inactive = T/C below 125%.

System: L1210 leukemia ip in BDF1 mice, survival T/C
Test: NCI In Vivo Anticancer Drug Screen. Data for tumor model L1210 Leukemia (intraperitoneal) in B6D2F1 (BDF1) mice
Conditions: endpoint: mean survival time, higher = longer survival
Procedure, shortened: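 In this screen, tumor-bearing mice given compound are compared to those given vehicle, and their survival values are reported as a treated-to-control quotient.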

[1] = dose: 25.0 mg/kg/injection, schedule: Q04DX002 (ip), vehicle: Klucel (hydroxypropylcellulose) (HPC)
[2] = dose: 50.0 mg/kg/injection, schedule: Q04DX002 (ip), vehicle: Klucel (hydroxypropylcellulose) (HPC)
[3] = dose: 100.0 mg/kg/injection, schedule: Q04DX002 (ip), vehicle: Klucel (hydroxypropylcellulose) (HPC)
[4] = dose: 100.0 mg/kg/injection, schedule: Q01DX001 (ip), vehicle: other
[5] = dose: 200.0 mg/kg/injection, schedule: Q01DX001 (ip), vehicle: other
[6] = dose: 400.0 mg/kg/injection, schedule: Q01DX001 (ip), vehicle: other
[7] = dose: 100.0 mg/kg/injection, schedule: Q04DX003 (ip), vehicle: Klucel (hydroxypropylcellulose) (HPC)
[8] = dose: 200.0 mg/kg/injection, schedule: Q04DX003 (ip), vehicle: Klucel (hydroxypropylcellulose) (HPC)
[9] = dose: 400.0 mg/kg/injection, schedule: Q04DX003 (ip), vehicle: Klucel (hydroxypropylcellulose) (HPC)
[10] = dose: 100.0 mg/kg/injection, schedule: Q04DX002 (ip), vehicle: saline with Tween-80
[11] = dose: 200.0 mg/kg/injection, schedule: Q04DX002 (ip), vehicle: saline with Tween-80
[12] = dose: 400.0 mg/kg/injection, schedule: Q04DX002 (ip), vehicle: saline with Tween-80
[13] = dose: 100.0 mg/kg/injection, schedule: Q01DX009 (ip), vehicle: Klucel (hydroxypropylcellulose) (HPC)
[14] = dose: 200.0 mg/kg/injection, schedule: Q01DX009 (ip), vehicle: Klucel (hydroxypropylcellulose) (HPC)
[15] = dose: 400.0 mg/kg/injection, schedule: Q01DX009 (ip), vehicle: Klucel (hydroxypropylcellulose) (HPC)
[16] = dose: 200.0 mg/kg/injection, schedule: Q01DX001 (ip), vehicle: saline
[17] = dose: 150.0 mg/kg/injection, schedule: Q01DX001 (ip), vehicle: carboxymethylcellulose (CMC)

Measured: T/C

O=C1c2ccccc2C(=Cc2c3ccccc3cc3ccccc23)c2ccccc21
inactive: [1] 97 % of control | [2] 106 % of control | [3] 94 % of control

Cc1c(C)c2cc(Br)ccc2[nH]c1=O
inactive: [4] 103 % of control | [5] 97 % of control | [6] 97 % of control

O=C(OCc1ccccc1CN1CCOCC1)c1ccc([N+](=O)[O-])cc1Cl
inactive: [1] 92 % of control | [2] 106 % of control | [3] 100 % of control

CS(=O)(=O)OCC1(Br)CC1(c1ccccc1)c1ccccc1 (stereo not given)
inactive: [4] 95 % of control | [5] 95 % of control | [6] 90 % of control

COc1ccc(N2C(=O)OC3(CCN(CCCC(=O)c4ccccc4)CC3)C2=O)cc1
inactive: [7] 101 % of control | [8] 98 % of control | [9] 92 % of control

O=C1c2ccccc2C(=O)C2CC(c3ccccc3)=C(c3ccccc3)CC12 (stereo not given)
inactive: [3] 96 % of control | dose: 200.0 mg/kg/injection, schedule: Q04DX002 (ip), vehicle: Klucel (hydroxypropylcellulose) (HPC) 96 % of control | dose: 400.0 mg/kg/injection, schedule: Q04DX002 (ip), vehicle: Klucel (hydroxypropylcellulose) (HPC) 100 % of control

c1c[nH]c(N=Nc2ccc(-c3ccc(N=Nc4ncc[nH]4)cc3)cc2)n1
inactive: dose: 50.0 mg/kg/injection, schedule: Q01DX009 (ip), vehicle: saline with Tween-80 97 % of control | dose: 100.0 mg/kg/injection, schedule: Q01DX009 (ip), vehicle: saline with Tween-80 90 % of control | dose: 200.0 mg/kg/injection, schedule: Q01DX009 (ip), vehicle: saline with Tween-80 90 % of control

O=C(O)c1cc(S(=O)(=O)F)ccc1O
inactive: [10] 101 % of control | [11] 101 % of control | [12] 104 % of control

OC(c1ccccc1)(c1ccccc1)C(O)(c1ccccc1)c1ccccc1
inactive: dose: 12.5 mg/kg/injection, schedule: Q04DX002 (ip), vehicle: Klucel (hydroxypropylcellulose) (HPC) 94 % of control | [1] 97 % of control and 122 % of control | [2] 115 % of control and 91 % of control | [3] 97 % of control | dose: 100.0 mg/kg/injection, schedule: Q04DX002 (ip), vehicle: gum acacia 92 % of control | [10] 102 % of control | [7] 96 % of control | dose: 200.0 mg/kg/injection, schedule: Q04DX002 (ip), vehicle: gum acacia 89 % of control | [11] 99 % of control | [8] 88 % of control | dose: 400.0 mg/kg/injection, schedule: Q04DX002 (ip), vehicle: gum acacia 95 % of control | [12] 99 % of control | [9] 95 % of control

O=C(NCCCl)Sc1ccc(Cl)cc1
inactive: dose: 20.0 mg/kg/injection, schedule: Q04DX003 (ip), vehicle: Klucel (hydroxypropylcellulose) (HPC) 92 % of control | dose: 40.0 mg/kg/injection, schedule: Q04DX003 (ip), vehicle: Klucel (hydroxypropylcellulose) (HPC) 90 % of control | dose: 80.0 mg/kg/injection, schedule: Q04DX003 (ip), vehicle: Klucel (hydroxypropylcellulose) (HPC) 93 % of control

CCOC(=O)C1CCC/C1=N\N=C(N)N (stereo not given) (tested in a mixture with another compound)
inactive: dose: 15.0 mg/kg/injection, schedule: Q01DX Z (ip), vehicle: methylcellulose (MC) 95 % of control | dose: 30.0 mg/kg/injection, schedule: Q01DX Z (ip), vehicle: methylcellulose (MC) 102 % of control | dose: 60.0 mg/kg/injection, schedule: Q01DX Z (ip), vehicle: methylcellulose (MC) 104 % of control | dose: 60.0 mg/kg/injection, schedule: Q01DX Z (oral), vehicle: methylcellulose (MC) 86 % of control | dose: 120.0 mg/kg/injection, schedule: Q01DX Z (ip), vehicle: methylcellulose (MC) 97 % of control | dose: 120.0 mg/kg/injection, schedule: Q01DX Z (oral), vehicle: methylcellulose (MC) 94 % of control | dose: 240.0 mg/kg/injection, schedule: Q01DX Z (oral), vehicle: methylcellulose (MC) 92 % of control

CCOc1ccc(N2C(C#N)c3ccccc3OC2c2ccccc2O)cc1 (stereo not given)
inactive: [13] 97 % of control | [14] 97 % of control | [15] 101 % of control

COc1cc(C(=O)COC(C)=O)cc2c1OC(c1ccccc1)(c1ccccc1)O2
inactive: [16] 86 % of control

Cc1nc(N)[nH]c(=O)c1CCCNC(=O)Cc1ccccc1
inactive: dose: 12.5 mg/kg/injection, schedule: Q01DX001 (ip), vehicle: Klucel (hydroxypropylcellulose) (HPC) 105 % of control | dose: 25.0 mg/kg/injection, schedule: Q01DX001 (ip), vehicle: Klucel (hydroxypropylcellulose) (HPC) 97 % of control | dose: 50.0 mg/kg/injection, schedule: Q01DX001 (ip), vehicle: Klucel (hydroxypropylcellulose) (HPC) 100 % of control

CCCCOP(=O)(OCCCC)Oc1c(Cl)c(Cl)c(Cl)c(Cl)c1Cl
inactive: dose: 100.0 mg/kg/injection, schedule: Q04DX002 (sc), vehicle: olive oil, sesame oil, peanut oil 107 % of control | dose: 200.0 mg/kg/injection, schedule: Q04DX002 (sc), vehicle: olive oil, sesame oil, peanut oil 100 % of control | dose: 400.0 mg/kg/injection, schedule: Q04DX002 (sc), vehicle: olive oil, sesame oil, peanut oil 104 % of control

OC(c1cc2ccc(C(F)(F)F)cc2c2cc(C(F)(F)F)ccc12)C1CCCCN1 (stereo not given)
inactive: dose: 12.5 mg/kg/injection, schedule: Q01DX009 (ip), vehicle: saline 93 % of control | dose: 25.0 mg/kg/injection, schedule: Q01DX009 (ip), vehicle: saline 103 % of control | dose: 50.0 mg/kg/injection, schedule: Q01DX009 (ip), vehicle: saline 108 % of control

CC(C)CNC(=O)Oc1cccc(NC(=O)N(C)C)c1
inactive: dose: 100.0 mg/kg/injection, schedule: Q04DX003 (ip), vehicle: saline with Tween-80 92 % of control | dose: 200.0 mg/kg/injection, schedule: Q04DX003 (ip), vehicle: saline with Tween-80 94 % of control | dose: 400.0 mg/kg/injection, schedule: Q04DX003 (ip), vehicle: saline with Tween-80 94 % of control

Oc1c(CN2CCOCC2)cc(N=Nc2ccccc2)c(O)c1CN1CCOCC1
inactive: dose: 100.0 mg/kg/injection, schedule: Q01DX001 (ip), vehicle: saline 88 % of control | [16] 104 % of control | dose: 400.0 mg/kg/injection, schedule: Q01DX001 (ip), vehicle: saline 88 % of control

COc1ccc(C(O)C2c3c(cc4c(c3OC)OCO4)CCN2C)c(CO)c1OC (stereo not given)
inactive: dose: 75.0 mg/kg/injection, schedule: Q01DX001 (ip), vehicle: carboxymethylcellulose (CMC) 100 % of control | [17] 105 % of control

CN(C)c1ccc(C2OC3(CCCCC3)C[N+]23CCCC3)cc1 (stereo not given)
inactive: dose: 100.0 mg/kg/injection, schedule: Q04DX003 (ip), vehicle: acetone 102 % of control

O=C(O)CCCc1nc2ccccc2c(=O)[nH]1
inactive: dose: 44.0 mg/kg/injection, schedule: Q01DX001 (ip), vehicle: carboxymethylcellulose (CMC) 101 % of control and 103 % of control | dose: 50.0 mg/kg/injection, schedule: Q01DX001 (ip), vehicle: carboxymethylcellulose (CMC) 108 % of control | dose: 66.0 mg/kg/injection, schedule: Q01DX001 (ip), vehicle: carboxymethylcellulose (CMC) 98 % of control and 103 % of control | dose: 100.0 mg/kg/injection, schedule: Q01DX001 (ip), vehicle: carboxymethylcellulose (CMC) 98 % of control and 100 % of control | [17] 93 % of control and 100 % of control | dose: 200.0 mg/kg/injection, schedule: Q01DX001 (ip), vehicle: carboxymethylcellulose (CMC) 106 % of control | dose: 400.0 mg/kg/injection, schedule: Q01DX001 (ip), vehicle: carboxymethylcellulose (CMC) 101 % of control

Cc1ccccc1NC(=O)Nc1ccccc1C
inactive: [13] 97 % of control | [14] 106 % of control | [15] 93 % of control

CC(C(=O)O)C(NC(=O)OCc1ccccc1)C(=O)O (stereo not given)
inactive: dose: 100.0 mg/kg/injection, schedule: Q01DX009 (ip), vehicle: other 93 % of control | dose: 100.0 mg/kg/injection, schedule: Q04DX003 (ip), vehicle: other 99 % of control | dose: 200.0 mg/kg/injection, schedule: Q01DX009 (ip), vehicle: other 91 % of control | dose: 200.0 mg/kg/injection, schedule: Q04DX003 (ip), vehicle: other 99 % of control | dose: 400.0 mg/kg/injection, schedule: Q01DX009 (ip), vehicle: other 98 % of control | dose: 400.0 mg/kg/injection, schedule: Q04DX003 (ip), vehicle: other 98 % of control
